The values below come from article PMC4104137 (2014).

For orientation: KD means the equilibrium constant for the complex coming apart. Read a high KD as weaker binding.

In assay [1] the test system is G28A (RNA, aptamer) GGACGCGACCGAAAUGGUGAAGGACGGAUCCAGUGCGAAACACGCACUGUUGAGUAGAGUGUGAGCUCCGUAACUGGUCGCGUC
The assay can be described thus: fluorescence activation titration, Hill fit. The settings on record: 100 mM K+, 5 mM Mg2+; 30 nM RNA; 10 mM Tris pH 7.5.

The test system of assay [2] is dU50 (RNA, aptamer, 2'-deoxyuridine at 37 (U50 in full-length numbering)) GGGGAGAAGGACGGGUCCAGUGCGAAACACGCACUGUUGAGUAGAGUGUGAGCUCCC
The assay can be described thus: fluorescence activation titration, Hill fit. The settings on record: 100 mM K+, 5 mM Mg2+; 30 nM RNA; 10 mM Tris pH 7.5.

As to `CC1=N/C(=C\c2cc(F)c(O)c(F)c2)C(=O)N1C`, the KD in assay [1] stood at 4400 ± 800 nM; in assay [2], 1100 ± 300 nM.
